Entries after “also recorded” stand apart in the source; their conditions may differ.
Tests used:
[1] = system: Normal human dermal fibroblasts (HNDF); assay: Myofibroblast transition assay (MFT), aSMA immunofluorescence; format: cell-based; conditions: N = 3; for Myofibroblast transition (MFT), aSMA/cell, % change relative to control: TGF-Beta induced HNDF, control of no peptide; for MFT, Representative value from experiments (% change relative to control): most effective significant concentration of 10, 100, 1000 ng/ml
Description: The myofibroblast transition (MFT) assay determines the effect of the peptide on inhibiting the transition of fibroblasts to myofibroblasts. The extracellular matrix produced by myofibroblasts may be produced in excess and may not be remodeled during tissue healing, leaving behind the fibrous connective tissue that forms a scar. Thus, the ability to regulate the degree of MFT may enable control of scarring. To determine if the peptides provided herein affect MFT, the following assay was performed.
Normal human dermal fibroblasts (HNDF) were cultured in high glucose Dulbecco's modified eagle medium (DMEM) supplemented with 10% fetal bovine serum (FBS) and 5 ml of 10,000 units of penicillin/streptomycin. Cells were cultured on 10 cm plates with media changes every 2 days. Cells were passaged in 0.25% Trypsin/EDTA after achieving 80% confluency.
To induce myofibroblast transition (MFT), normal human dermal fibroblasts (HNDFs) were split from 1-10 cm plates to 5-96 well plates. Cells were then allowed to grow the next day. The following day, cells were serum starved (1% FBS in DMEM) for 4 hours prior to adding 20 ng/ml of TGF-Beta to all wells of the plate. 1000 μM of Vactosertib (TEW-7197/EW-7197) was added to serve as a positive control and different concentrations of peptides were added to serve as the test articles. The cells were then exposed to the compounds for 5 more days before fixation.
The cells were fixed in paraformaldehyde (PFA) for 10-15 minutes, then washed 2× in PBS. Cells were blocked in 4% BSA for 30 minutes at 23° C. Cells were stained with the primary alpha-smooth muscle actin (aSMA) antibody (1:100) for 1 hour at 23° C. or left out at 4° C. overnight. Cells were rinsed 2× with BSA and then the secondary antibody mix was added: Alexa 488 (1:500) and DAPI (1:1000) for 30 min at 23° C. or 1 hr at 4° C. The plates were covered during staining, then rinsed 2× in BSA and stored in PBS.
Plates were imaged using the Celigo Imaging Cytometer by Nexcelcom. The ratio of fluorescent expression of alpha-smooth muscle actin (aSMA) and DAPI were quantified to determine the amount of aSMA/cell.
The change (normalized to the control) in MFT for each concentration is shown along with the p value for all experiments relative to the control of no peptide.

[2] = system: HNDF fibroblasts; assay: Fibroblast cell proliferation (EDU); format: cell-based, human; conditions: N = 3; for Fibroblast proliferation, Representative value from experiments (% change relative to control): most effective significant concentration
Protocol: Fibroblast proliferation is an important component of tissue regeneration. To determine if the peptides of the disclosure affect fibroblast proliferation, HNDFs were grown as described above, and split from 1-10 cm plates to 4-24 well plates. After allowing the cells to grow overnight, normal media was replaced with starvation media (1% FBS in DMEM). 10 ng/ml of fibroblast growth factor (FGF) served as a positive control, untreated cells (starvation media only) served as a negative control, and different concentrations of the peptides as test articles. The cells were then exposed to the peptides for a day before adding 5-Ethynyl-2′-deoxyuridine (EDU) EDU signal marker for 2-4 hours to assess DNA synthesis and cell proliferation.
The fibroblasts were fixed in PFA for 10-15 minutes, then washed 2× in 4% BSA. 0.1% Triton X-100 in PBS was added for 20 min at 23° C. to permeabilize the cells. The cells were washed 2× in 4% BSA and the following reaction mixture was added: 0.25% of 488 iFlour azide, 4% CuSO, 10% Sodium Ascorbate in PBS. The cells were incubated at 23° C. for 30 minutes. The cells were washed in BSA 1× and in PBS 1×. The cells were also stained for DAPI for 30 minutes at 23° C. The cells were washed 2× in PBS and maintained in PBS.
Plates were imaged using the Celigo Imaging Cytometer by Nexcelcom. The amount of fluorescent expression of EDU and DAPI were quantified to determine the amount of EDU/field (and thus the percentage of fibroblast cells dividing).
Because the concentration required to induce an effect with each peptide was not known, each peptide was tested in 3 concentrations: 10 ng/ml, 100 ng/ml, and 1000 ng/ml as shown in Table 4A and Table 4B.

[3] = system: interleukin-8 (IL-8) production in human fibroblasts; assay: Fibroblast inflammation assay (LPS-induced IL-8, ELISA); format: cell-based; conditions: LPS induction
Protocol: Inflammation in fibroblasts leads to the production of the chemokine interleukin-8 (IL-8), which stimulates fibroblast to myofibroblast transition (MFT) thereby enhancing scar formation. To determine if the peptides of the instant disclosure affect fibroblast response to inflammation and fibroblast IL-8 production, the following assays were performed.
Human fibroblasts were grown as described above. HNDFs were plated in 96 well plates at a concentration of 1×10^4 cells/well and allowed to incubate overnight. The next day cells were dosed with 5 μg/mL of LPS with and without the peptides. The negative control contained only media and vehicle, while the positive control was dosed with lipopolysaccharides (LPS) and dexamethasone (50 μg/ml). After 24 hours, the media was removed to measure IL6 and IL8 cytokine levels using ELISA. A standard curve was plotted in excel. All data were blank subtracted and then fit onto the curve to calculate cytokine concentrations.

[4] = system: Keratinocytes; assay: Keratinocyte scratch assay; format: cell-based, human; set-up: Keratinocyte scratch assay (% change relative to control): unit not given here
Protocol: HNDF fibroblasts were grown as described above. HNDFs were split from 1-10 cm plate to 4-24 well plates. Cells were allowed to grow until 90-100% confluent. Cells were serum starved (in 1% FBS in DMEM) for 4 hours before scratching using the Biotek Autoscratch machine. Cells were washed with PBS and the media was replaced with starvation media as a negative control, normal media (10% FBS) as positive control, and starvation media+compound as the test article. Cells were imaged at T=0 to serve as a baseline and fixed at T=48 hours. The images at 48 hours were imaged using phase contrast microscopy or with wheat germ agglutinin (WGA) stain.
Scratch assays were also performed on keratinocytes. Keratinocytes were grown to confluency and scratch assays were performed and measured as above with fibroblasts.

[5] = system: Acinetobacter baumannii ATCC 196062; assay: Diffusion agar plate method, zone of inhibition; format: cell-based; conditions: 62.5 μg/ml to 1000 μg/ml; FIG. 5, FIG. 10
Protocol: (§1) Cell culture: Cultures of each bacterial strain were prepared by inoculating on Muller Hinton Agar (MHA) medium. After overnight incubation at 37° C., the density of the bacterial cells was compared to the McFarland turbidity standard (0.5).
(§2) Plates were swabbed with McFarland 0.5 inoculum of each test bacteria. […] serial dilutions of the peptides were prepared and 20 μl of compound were dropped onto the MHA. Antibiotic disc served as a positive control and vehicle alone served as the negative control. Plates were incubated for 16-18 hours and assessed for antibacterial activity. Zones of inhibition were measured for each TA dilution and compared with the controls.

[6] = system: Streptococcus pneumoniae DCC1335; assay: Diffusion agar plate method, zone of inhibition; format: cell-based; conditions: 62.5 μg/ml to 1000 μg/ml; FIG. 10
Protocol: as §1, §2

[7] = system: skin after dermabrasion; assay: Clinical study, Visioscan skin smoothness after dermabrasion; format: in vivo, human; conditions: 8, 24, 48 and 72 hours after dermabrasion; vehicle cream base
Protocol: (§3) To determine the effects of exemplary peptides p1-p9 on tissue healing, a clinical study was performed that assessed transepidermal water loss (TEWL) and skin smoothness after dermabrasion.
(§4) This exemplary vehicle cream has a pH of 5.0, no odor and is white in color.
(§5) After 8 hours (T8h) of first product application, the subjects returned to the Institute, acclimated for 15 minutes and new Vapometer® to measure TEWL and Visioscan® VC 20Plus to measure skin smoothness was performed. After 1 (T1d), 2 (T2d) and 3 (T3d) days the subjects returned to the Institute, acclimated for 15 minutes and new measurements were performed. At time-points T1d and T2d new product application was performed by the technician on each test site. A total of 49 study subjects were included in the study and a total of 41 completed the study. The study included post-menopausal female subjects, aged between 50 and 65 years old (mean age: 59 years old), presenting Fitzpatrick Skin Types II-V.
Skin texture images were performed using the Visioscan® VC 20Plus, which allows taking pictures of the skin through magnifying lenses. The images enable a view of the skin topography, texture, dryness, desquamation, blemishes, pores, and cuticles.

[8] = system: skin after dermabrasion; assay: Clinical study, transepidermal water loss (TEWL, Vapometer) after dermabrasion; format: in vivo, human; conditions: 8, 24, 48 hours, vehicle cream base
Protocol: as §3, §4
as §5, with “The study included post-menopausal female subjects, aged between 50 and 65 years old (mean age: 59 years old), presenting Fitzpatrick Skin Types II-V.” left out
The TEWL measurements were performed by using the Vapometer® device through a measurement probe. The readings were taken by applying the probe to the test sites, by resting it against the skin.
The measurements principle is diffusion, which indicates the mass of water per cm^2 that is transported in a given period of time, that is, the reading indicates the degree of water evaporation on the skin surface based on the sensitivity of hygro-sensors. The scale used is g/h/m^2, in which greater values of reading indicate higher evaporation. […]

[9] = system: skin post-dermabrasion; assay: Clinical study, erythema (Chromameter a* value) post-dermabrasion; format: in vivo, human; conditions: 4 hours and 12 hours after application
Protocol: To determine the effects of the peptides on skin redness, the peptides P2, P3, and the combination of P2+P3 were tested at different concentration levels and subject's skin redness (erythema) was measured post-dermabrasion and 2, 4, 8, 12, 24, 48 and 72 hours post-application. The subjects were 30 post-menopausal female subjects, aged 50-65 years or younger, if post-menopausal. Enrolled subjects were to have Fitzpatrick Skin Types II-V. At baseline (post-dermabrasion) and 2, 4, 8, 12, 24, 48 and 72 hours post-application, skin redness was measured on 4 skin sites using the Chromameter® (Konica Minolta, Ramsey NJ). In order to determine any changes in skin redness, the a* value was analyzed. The a* value measures redness/erythema in the skin. A decrease in the a* value corresponded to a whitening/improvement (less red) effect and an increase in the a*value represented a darkening/worsening (redder) effect

## SAYGVSKGLRKRLRKFRNK [MBb51]
[1]; 10 ng/ml peptide
  Myofibroblast transition (MFT), aSMA/cell, % change relative to control: −0.5028%
[1]; 1000 ng/ml peptide
  Myofibroblast transition (MFT), aSMA/cell, % change relative to control: −0.3773%
[1]
  MFT, Representative value from experiments (% change relative to control): −0.5028 p = (0.042) %
[2]; 100 ng/ml peptide
  Fibroblast proliferation (% change relative to control): 0.3099%
[2]; 1000 ng/ml peptide
  Fibroblast proliferation (% change relative to control): 0.4175%
[2]
  Fibroblast proliferation, Representative value from experiments (% change relative to control): 0.4175 p = (0.025) %

## QFCGPCGLRKRLRKFRNK [MBb11]
[1]; 100 ng/ml peptide
  Myofibroblast transition (MFT), aSMA/cell, % change relative to control: −0.3537%
[1]; 1000 ng/ml peptide
  Myofibroblast transition (MFT), aSMA/cell, % change relative to control: −0.419%
[1]
  MFT, Representative value from experiments (% change relative to control): −0.419 p = (0.025) %
[3]
  effect on IL-8 inhibition in fibroblasts relative to the negative control: low but significant effect
[4]
  increase of keratinocyte migration: at least 39%
  rate of keratinocyte migration: significantly increased
[4]; 1000 ng/ml, N = 8
  Keratinocyte scratch assay (% change relative to control): 0.3892

## GFWDIL WHIPHTIKG (GFWDILWHIPHTIKG) [MBdol15]
[5]
  agar zone of inhibition, inhibiting bacterial growth: effective
[6]
  agar zone of inhibition, inhibiting bacterial growth: effective

## TFMSHLFCCVQKRCDCSF [MBdol23]
[5]
  agar zone of inhibition, inhibiting bacterial growth: effective
[6]
  agar zone of inhibition, inhibiting bacterial growth: effective

## GYRCSKG [MBa7]
[2]; 10 ng/ml peptide
  Fibroblast proliferation (% change relative to control): 0.3483%
[2]; 1000 ng/ml peptide
  Fibroblast proliferation (% change relative to control): 0.4644%
[2]
  Fibroblast proliferation, Representative value from experiments (% change relative to control): 0.4644 p = (0.01) %

## AATHEFGHSLGLSH [MBm1]
[2]; 100 ng/ml peptide
  Fibroblast proliferation (% change relative to control): 0.2919%
[2]
  Fibroblast proliferation, Representative value from experiments (% change relative to control): 0.2919 (p = 0.044) %

## FEDVIAEP [MBa5]
[2]; 10 ng/ml peptide
  Fibroblast proliferation (% change relative to control): 0.5133%
[2]
  Fibroblast proliferation, Representative value from experiments (% change relative to control): 0.5133 (p = 0.004) %

## QRLLEAQAAT [Peptide P2]
[7]
  skin smoothness (Visioscan): visible; also recorded: most promising skin smoothness results
[8]
  TEWL, skin barrier restoration: most promising TEWL assay results; also recorded: most promising results in skin barrier restoration
[9]
  skin redness (erythema), a* value: significantly improved erythema; also recorded: improve skin redness

## IDFEDVIAEP [MBa4]
[2]; 1000 ng/ml peptide
  Fibroblast proliferation (% change relative to control): 0.8384%
[2]
  Fibroblast proliferation, Representative value from experiments (% change relative to control): 0.8384 p = (0.037) %

## ERDLK [MBb14]
[2]; 10 ng/ml peptide
  Fibroblast proliferation (% change relative to control): 1.094%
[2]
  Fibroblast proliferation, Representative value from experiments (% change relative to control): 1.094 p = (0.029) %

## PKPQP [MBb28]
[1]; 100 ng/ml peptide
  Myofibroblast transition (MFT), aSMA/cell, % change relative to control: −0.243%
[1]; 1000 ng/ml peptide
  Myofibroblast transition (MFT), aSMA/cell, % change relative to control: −0.1881%
[1]
  MFT, Representative value from experiments (% change relative to control): −0.243 p = (0.006) %
[3]
  effect on IL-8 inhibition in fibroblasts relative to the negative control: low but significant effect

## SSSGLGLRKRLRKFRNK [MBb50]
[2]; 100 ng/ml peptide
  Fibroblast proliferation (% change relative to control): 0.3589%
[2]
  Fibroblast proliferation, Representative value from experiments (% change relative to control): 0.3589 p = (0.025) %

## EKKNPGLRKRLRKFRNK [MBb73]
[1]; 100 ng/ml peptide
  Myofibroblast transition (MFT), aSMA/cell, % change relative to control: −0.07558%
[1]
  MFT, Representative value from experiments (% change relative to control): −0.07558 p = (0.04) %

## PPSILGLRKRLRKFRNK [MBb44]
[1]; 100 ng/ml peptide
  Myofibroblast transition (MFT), aSMA/cell, % change relative to control: −0.1751%
[1]
  MFT, Representative value from experiments (% change relative to control): −0.1751 p = (0.005) %

Reference: patent US20250108088A1, “REGENERATIVE PEPTIDES AND METHODS FOR USE THEREOF” (priority 2023, published 2025)
